Results published in the supplement of paper PMC8617591.

Legend:
[1] = system: Mycobacterium tuberculosis Erdman (autoluminescent); assay: total FIC50 (Loewe) at 50% inhibition, three-drug combination (log2); higher = more antagonistic
Protocol: (§1)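 DiaMOND equipotent three-drug combination dose responses (10 doses, 1.5- or 2-fold spacing, centred on IC90) against autoluminescent M. tuberculosis Erdman in 8 in vitro models. Read-out is OD600, or luminescence for the intracellular and dormancy models, normalised to untreated wells. Hill-fit Einf, AUC25 and GRinf are potency metrics; FIC50 and FIC90 are total Loewe fractional inhibitory concentrations as log2 (negative = synergy).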

[2] = system: Mycobacterium tuberculosis Erdman (autoluminescent); assay: AUC25, normalised area under dose response up to IC25 (three-drug combination) (fraction (0-1)); higher = more potent at low dose
Protocol: as §1

[3] = system: Mycobacterium tuberculosis Erdman (autoluminescent); assay: total FIC90 (Loewe) at 90% inhibition, three-drug combination (log2); higher = more antagonistic
Protocol: as §1

[4] = system: Mycobacterium tuberculosis Erdman (autoluminescent); assay: GRinf, maximum normalised growth rate inhibition (three-drug combination) (unitless (-1 to 1)); higher = less effect (negative = killing)
Protocol: as §1

[5] = system: Mycobacterium tuberculosis Erdman (autoluminescent); assay: Einf, fitted maximum growth inhibition of three-drug combination (fraction); higher = stronger maximal inhibition
Protocol: as §1

COc1nc2ccc(Br)cc2cc1[C@@H](c1ccccc1)[C@@](O)(CCN(C)C)c1cccc2ccccc12 [bedaquiline] + CC(C)/N=c1\cc2n(-c3ccc(Cl)cc3)c3ccccc3nc-2cc1Nc1ccc(Cl)cc1 [clofazimine] + COc1c(N2C[C@@H]3CCCN[C@@H]3C2)c(F)cc2c(=O)c(C(=O)O)cn(C3CC3)c12 [moxifloxacin]
Conditions	AUC25, [2]	Einf, [5]	GRinf, [4]	total FIC50, [1]	total FIC90, [3]
in vitro model: acidic pH 5.7, time point: constant (~7 days, model-specific)	0.0874	0.698	-0.457	1.07	–
in vitro model: acidic pH 5.7, time point: terminal (~4-5 doublings, model-specific)	0.0681	0.957	-0.368	0.792	0.0494
in vitro model: intracellular J774, time point: constant = terminal	–	0.974	-0.345	–	0.0395

Conditions	AUC25, [2]	Einf, [5]	GRinf, [4]	total FIC50, [1]	total FIC90, [3]
in vitro model: butyrate, time point: constant (~7 days, model-specific)	0.0682	0.95	-0.111	-0.0983	-0.596
in vitro model: butyrate, time point: terminal (~4-5 doublings, model-specific)	0.0514	0.979	-0.117	0.0193	-0.388
in vitro model: cholesterol 0.05 mM, time point: constant (~7 days, model-specific)	0.0732	0.724	-0.218	-0.685	–
in vitro model: cholesterol 0.05 mM, time point: terminal (~4-5 doublings, model-specific)	0.0839	0.927	-0.23	0.399	-1.01
in vitro model: cholesterol-high 0.2 mM, time point: constant (~7 days, model-specific)	0.094	0.97	-0.382	-0.248	0.136
in vitro model: cholesterol-high 0.2 mM, time point: terminal (~4-5 doublings, model-specific)	0.0879	1	-0.535	0.0978	-0.0166
in vitro model: dormancy (butyrate + nitrate, low O2), time point: constant (~7 days, model-specific)	0.0734	0.907	0.241	-0.202	-0.9
in vitro model: dormancy (butyrate + nitrate, low O2), time point: terminal (~4-5 doublings, model-specific)	0.0897	0.997	-0.093	-0.168	0.176
in vitro model: standard 7H9 glycerol, time point: constant = terminal	0.0896	0.983	-0.156	-0.176	-0.548
in vitro model: valerate, time point: constant (~7 days, model-specific)	0.121	0.959	-0.201	0.443	–
in vitro model: valerate, time point: terminal (~4-5 doublings, model-specific)	0.0856	0.968	-0.1	0.482	1.71

COc1nc2ccc(Br)cc2cc1[C@@H](c1ccccc1)[C@@](O)(CCN(C)C)c1cccc2ccccc12 [bedaquiline] + CC(C)/N=c1\cc2n(-c3ccc(Cl)cc3)c3ccccc3nc-2cc1Nc1ccc(Cl)cc1 [clofazimine] + NC(=O)c1cnccn1 [pyrazinamide]
Conditions	AUC25, [2]	Einf, [5]	GRinf, [4]	total FIC50, [1]	total FIC90, [3]
in vitro model: acidic pH 5.7, time point: constant (~7 days, model-specific)	0.0929	0.862	-0.349	0.0846	–
in vitro model: acidic pH 5.7, time point: terminal (~4-5 doublings, model-specific)	0.074	0.968	-0.284	0.193	-0.409
in vitro model: intracellular J774, time point: constant = terminal	–	0.963	-0.197	–	-0.109

Conditions	AUC25, [2]	Einf, [5]	GRinf, [4]	total FIC50, [1]	total FIC90, [3]
in vitro model: butyrate, time point: constant (~7 days, model-specific)	0.0756	0.946	-0.0789	-0.624	-0.916
in vitro model: butyrate, time point: terminal (~4-5 doublings, model-specific)	0.0582	0.977	-0.0813	-0.595	-1.03
in vitro model: cholesterol 0.05 mM, time point: constant (~7 days, model-specific)	0.0812	0.732	-0.17	–	–
in vitro model: cholesterol 0.05 mM, time point: terminal (~4-5 doublings, model-specific)	0.0926	0.939	-0.225	0.513	–
in vitro model: cholesterol-high 0.2 mM, time point: constant (~7 days, model-specific)	0.06	0.921	-0.227	-0.0552	–
in vitro model: cholesterol-high 0.2 mM, time point: terminal (~4-5 doublings, model-specific)	0.0776	1	-0.556	0.345	-0.162
in vitro model: dormancy (butyrate + nitrate, low O2), time point: constant (~7 days, model-specific)	0.0795	0.924	0.201	-1.18	-1.48
in vitro model: dormancy (butyrate + nitrate, low O2), time point: terminal (~4-5 doublings, model-specific)	0.0671	0.991	-0.181	-0.97	-1.37
in vitro model: standard 7H9 glycerol, time point: constant = terminal	0.0904	0.961	-0.0928	-0.389	–
in vitro model: valerate, time point: constant (~7 days, model-specific)	0.103	0.884	0.0304	0.388	–
in vitro model: valerate, time point: terminal (~4-5 doublings, model-specific)	0.0692	0.929	0.0196	0.415	0.773

COc1nc2ccc(Br)cc2cc1[C@@H](c1ccccc1)[C@@](O)(CCN(C)C)c1cccc2ccccc12 [bedaquiline] + CC(C)/N=c1\cc2n(-c3ccc(Cl)cc3)c3ccccc3nc-2cc1Nc1ccc(Cl)cc1 [clofazimine] + NNC(=O)c1ccncc1 [isoniazid]
Conditions	AUC25, [2]	Einf, [5]	GRinf, [4]	total FIC50, [1]	total FIC90, [3]
in vitro model: acidic pH 5.7, time point: constant (~7 days, model-specific)	0.11	0.842	-0.379	0.675	–
in vitro model: acidic pH 5.7, time point: terminal (~4-5 doublings, model-specific)	0.09	0.969	-0.293	0.356	0.616
in vitro model: intracellular J774, time point: constant = terminal	–	0.96	-0.447	–	-0.134

Conditions	AUC25, [2]	Einf, [5]	GRinf, [4]	total FIC50, [1]	total FIC90, [3]
in vitro model: butyrate, time point: constant (~7 days, model-specific)	0.0622	0.945	-0.1	-0.0224	-0.194
in vitro model: butyrate, time point: terminal (~4-5 doublings, model-specific)	0.0523	0.979	-0.119	-0.00128	-0.306
in vitro model: cholesterol 0.05 mM, time point: constant (~7 days, model-specific)	0.0812	0.724	-0.209	-0.55	–
in vitro model: cholesterol 0.05 mM, time point: terminal (~4-5 doublings, model-specific)	0.0932	0.933	-0.263	0.444	-0.22
in vitro model: cholesterol-high 0.2 mM, time point: constant (~7 days, model-specific)	0.0765	0.955	-0.396	0.226	0.206
in vitro model: cholesterol-high 0.2 mM, time point: terminal (~4-5 doublings, model-specific)	0.0685	1	-0.54	0.648	0.259
in vitro model: dormancy (butyrate + nitrate, low O2), time point: constant (~7 days, model-specific)	0.0746	0.911	0.317	0.0126	-0.362
in vitro model: dormancy (butyrate + nitrate, low O2), time point: terminal (~4-5 doublings, model-specific)	0.0741	0.991	-0.0967	-0.283	-0.303
in vitro model: standard 7H9 glycerol, time point: constant = terminal	0.0945	0.97	-0.0956	-0.294	-0.677
in vitro model: valerate, time point: constant (~7 days, model-specific)	0.109	0.903	-0.0916	0.133	-0.379
in vitro model: valerate, time point: terminal (~4-5 doublings, model-specific)	0.0654	0.948	-0.0502	0.246	0.504

COc1nc2ccc(Br)cc2cc1[C@@H](c1ccccc1)[C@@](O)(CCN(C)C)c1cccc2ccccc12 [bedaquiline] + CC(C)/N=c1\cc2n(-c3ccc(Cl)cc3)c3ccccc3nc-2cc1Nc1ccc(Cl)cc1 [clofazimine] + O=[N+]([O-])c1cn2c(n1)OC[C@@H](OCc1ccc(OC(F)(F)F)cc1)C2 [pretomanid]
Conditions	AUC25, [2]	Einf, [5]	GRinf, [4]	total FIC50, [1]	total FIC90, [3]
in vitro model: acidic pH 5.7, time point: constant (~7 days, model-specific)	0.106	0.809	-0.477	0.502	–
in vitro model: acidic pH 5.7, time point: terminal (~4-5 doublings, model-specific)	0.0881	0.968	-0.411	0.438	0.703
in vitro model: intracellular J774, time point: constant = terminal	–	0.986	-0.307	–	0.235

Conditions	AUC25, [2]	Einf, [5]	GRinf, [4]	total FIC50, [1]	total FIC90, [3]
in vitro model: butyrate, time point: constant (~7 days, model-specific)	0.0748	0.948	-0.105	0.0794	-0.148
in vitro model: butyrate, time point: terminal (~4-5 doublings, model-specific)	0.0598	0.982	-0.123	0.0162	-0.232
in vitro model: cholesterol 0.05 mM, time point: constant (~7 days, model-specific)	0.101	0.724	-0.148	0.099	–
in vitro model: cholesterol 0.05 mM, time point: terminal (~4-5 doublings, model-specific)	0.111	0.938	-0.208	0.567	0.307
in vitro model: cholesterol-high 0.2 mM, time point: constant (~7 days, model-specific)	0.0786	0.94	-0.226	0.161	0.852
in vitro model: cholesterol-high 0.2 mM, time point: terminal (~4-5 doublings, model-specific)	0.0851	1	-0.559	0.209	0.0625
in vitro model: dormancy (butyrate + nitrate, low O2), time point: constant (~7 days, model-specific)	0.0645	0.942	0.201	-0.378	-1.22
in vitro model: dormancy (butyrate + nitrate, low O2), time point: terminal (~4-5 doublings, model-specific)	0.077	0.996	-0.219	-1.08	-1.15
in vitro model: standard 7H9 glycerol, time point: constant = terminal	0.0956	0.967	-0.0799	-0.29	-0.495
in vitro model: valerate, time point: constant (~7 days, model-specific)	0.119	0.91	-0.0979	0.482	-0.269
in vitro model: valerate, time point: terminal (~4-5 doublings, model-specific)	0.0785	0.954	-0.0498	0.323	0.514

COc1nc2ccc(Br)cc2cc1[C@@H](c1ccccc1)[C@@](O)(CCN(C)C)c1cccc2ccccc12 [bedaquiline] + CC[C@@H](CO)NCCN[C@@H](CC)CO [ethambutol] + CC(=O)NC[C@H]1CN(c2ccc(N3CCOCC3)c(F)c2)C(=O)O1 [linezolid]
Conditions	AUC25, [2]	Einf, [5]	GRinf, [4]	total FIC50, [1]	total FIC90, [3]
in vitro model: acidic pH 5.7, time point: constant (~7 days, model-specific)	0.0748	0.822	-0.403	-0.0157	–
in vitro model: acidic pH 5.7, time point: terminal (~4-5 doublings, model-specific)	0.0941	0.977	-0.395	0.509	0.711
in vitro model: intracellular J774, time point: constant = terminal	–	0.922	-0.379	–	0.819

Conditions	AUC25, [2]	Einf, [5]	GRinf, [4]	total FIC50, [1]	total FIC90, [3]
in vitro model: butyrate, time point: constant (~7 days, model-specific)	0.0774	0.931	-0.0747	0.429	–
in vitro model: butyrate, time point: terminal (~4-5 doublings, model-specific)	0.0539	0.964	-0.0521	0.371	-0.223
in vitro model: cholesterol 0.05 mM, time point: constant (~7 days, model-specific)	0.151	0.783	-0.458	0.52	–
in vitro model: cholesterol 0.05 mM, time point: terminal (~4-5 doublings, model-specific)	0.159	0.946	-0.703	8.47	–
in vitro model: cholesterol-high 0.2 mM, time point: constant (~7 days, model-specific)	0.0976	0.984	-1	0.98	–
in vitro model: cholesterol-high 0.2 mM, time point: terminal (~4-5 doublings, model-specific)	0.114	1	-0.946	0.45	1.37
in vitro model: dormancy (butyrate + nitrate, low O2), time point: constant (~7 days, model-specific)	0.124	0.886	0.486	1.37	–
in vitro model: dormancy (butyrate + nitrate, low O2), time point: terminal (~4-5 doublings, model-specific)	0.127	0.989	-0.414	0.241	0.872
in vitro model: standard 7H9 glycerol, time point: constant = terminal	0.0754	0.943	-0.0326	0.387	–
in vitro model: valerate, time point: constant (~7 days, model-specific)	0.106	0.915	-0.161	0.715	–
in vitro model: valerate, time point: terminal (~4-5 doublings, model-specific)	0.0559	0.954	-0.121	0.85	-0.19
